# Measured values reported in PMC9545004, “Transglutaminase 2 affinity and enzyme‐substrate intermediate stability as determining factors for T‐cell responses to gluten peptides in celiac disease” (European Journal of Immunology, 2022).
# Like-named read-outs stand apart in the source and are kept apart here.
# Legend:
# [1] = test system: TCR-transfectant cells specific for DQ2.5-glia-ω2; test: Inhibition by primary amines of activation of DQ2.5-glia-ω2-specific T cells by TG2-specific B cells, IL-2 ELISA; type: cell-based; conditions: for IC50: 5 µM N-ω-gliadin 34-mer, TG2, CaCl2, amine 0-1000 µM, IL-2 ELISA
# Text: (§1) Murine A20 B lymphoma cells engineered to express either the celiac patient‐derived TG2‐specific BCR 679‐14‐E06 or the non‐TG2‐specific BCR 693‐2‐F02 as human IgD are previously described. For B‐cell/T‐cell collaboration assays, we used A20 BCR transfectants also transduced to express HLA‐DQ2.5 [27]. Murine BW58α^–β^– cells were retrovirally transduced to express human CD4 as well as the celiac patient‐derived gluten‐specific TCR from a DQ2.5‐glia‐γ1‐reactive T‐cell clone (TCC 4.32) as previously described. The generation of TCR transfectants expressing DQ2.5‐glia‐α2‐reactive TCR (TCC 364.14) and DQ2.5‐glia‐ω2‐reactive TCR (clone 737.30) have been described previously.
# The B‐cell/T‐cell collaboration assays were set up as previously described. To compare the uptake and presentation of different gluten peptides to T cells, A20 cells (5 mill/mL) expressing the TG2‐specific BCR (679‐14‐E06) and HLA DQ2.5 were incubated with recombinant TG2 (final 3 µg/mL) and varying amounts of N‐α‐gliadin 20‐mer, N‐ω‐gliadin 19‐mer, or N‐γ‐gliadin 21‐mer in RPMI supplemented with 2 mM CaCl2. After a 30 min incubation at 37°C the cells were washed with 1% FCS/RPMI and resuspended in 5% FCS/RPMI to give a final 1.5 million cells/mL (150 000/well) followed by 2 h incubation at 37°C. Next, TCR‐transfectant cells specific for either DQ2.5‐glia‐α2, DQ2.5‐glia‐ω2, or DQ2.5‐glia‐γ1 were added (25 000/well), followed by overnight incubation at 37°C. The next day, IL‐2 concentration was measured in the culture supernatant by ELISA as previously described. The responsiveness of different TCR transfectants was assessed in the same way, but without the 30 min incubation with TG2, and using the synthetic deamidated peptides (D‐α‐gliadin 20‐mer, D‐ω‐gliadin 17‐mer, and D‐γ‐gliadin 21‐mer). To assess how TG2 secondary substrate affects peptide uptake and presentation to T cells, TG2‐specific A20 cells expressing DQ2.5 were incubated with TG2, CaCl2, 5 µM N‐ω‐gliadin 34‐mer, or 5 µM N‐α‐gliadin 33‐mer in the presence of primary amines at increasing concentrations (0‐1000 µM), before the addition of TCR‐transfectant cells specific for the DQ2.5‐glia‐α2 or DQ2.5‐glia‐ω2 epitopes. The dose‐response curve fitting to find IC50 was done using the “[Inhibitor] vs. response” equation in GraphPad Prism 8.3.0. To examine whether primary amines directly affect the B cells, TG2‐specific A20 cell expressing DQ2.5 were incubated with primary amines for 30 min and washed, before addition of 2 µM D‐ω‐gliadin 34‐mer, followed by incubation with DQ2.5‐glia‐ω2 TCR transfectants.
# [2] = test system: TG2:gluten complexes uptake by TG2-specific B cells (A20, BCR 679-14-E06); test: Inhibition by primary amines of TG2:gluten complex uptake by TG2-specific B cells, flow cytometry; type: cell-based, Murine A20 B lymphoma; recombinant human TG2; conditions: for IC50: B-cell
# Text: as §1
# B‐cell uptake of gluten peptides was measured essentially as previously described. The following 9‐mer peptides were compared: FITC‐α2, FITC‐ω2, FITC‐γ1, and FITC‐γ3. In brief, A20 cells (300 000/well) expressing TG2‐specific (679‐14‐E06) or non‐TG2 specific BCR (693‐2‐F02) were incubated with recombinant TG2 (final 3 µg/mL), 5 µM FITC peptide, and 2 mM CaCl2 in RPMI at a final volume of 50 µL. Following incubation at 37°C, the TG2 enzymatic activity was quenched by the addition of 100 µL 2 mM EDTA/RPMI at specific timepoints. Cells were washed, fixed in 2% methanol‐free formaldehyde (Invitrogen), resuspended in 2% fetal calf serum (FCS)/PBS, and analyzed by flow cytometry (Attune NxT Flow Cytometer, Thermo Scientific). For each peptide, a delta MFI was calculated by subtracting MFI from non‐TG2 specific A20 cell (unspecific binding) from MFI of TG2‐specific A20 cells. Delta MFI was normalized for each experiment by dividing by the highest delta value per experiment. To assess the contribution and uptake of isopeptide‐linked TG2:gluten complexes, TG2 (3 µg/mL) and FITC‐labelled peptides (5 µM) were preincubated in RPMI with 2 mM CaCl2 at 37°C for 30 min before addition of A20 cells followed by 30 min incubation at 37°C. To examine the effect of TG2 secondary substrates on peptide uptake, the primary amines spermine (Sigma–Aldrich) and biotinylated cadaverine (5‐biotinamido‐pentylamine; 5‐BP, Pierce) were added to the reaction mixture (0.1–1000 µM final concentration), followed by 10 min incubation at 37°C and flow cytometry analysis. The dose‐response curve fitting to find IC50 was done using the “[Inhibitor] vs. response” equation in GraphPad Prism 8.3.0. Of note, the presence of Lysine HCl in RPMI medium represents an experimental constant in our assays that is not accounted for when calculating the competitive effect of amine.
# [3] = DQ2.5-glia-ω2, replicate Figure S5A
# [4] = DQ2.5-glia-ω2, replicate Figure S5B
# [5] = logIC50, DQ2.5-glia-ω2, Figure 5
# [6] = logIC50, DQ2.5-glia-ω2, replicate Figure S5A
# [7] = logIC50, inhibition of FITC-α2 uptake, Figure 4
# [8] = logIC50, inhibition of FITC-α2 uptake, mean
# [9] = logIC50, inhibition of FITC-α2 uptake, replicate Figure S4 A
# [10] = logIC50, inhibition of FITC-α2 uptake, replicate Figure S4 B
# [11] = logIC50, inhibition of FITC-ω2 uptake, Figure 4
# [12] = logIC50, inhibition of FITC-ω2 uptake, mean
# [13] = logIC50, inhibition of FITC-ω2 uptake, replicate Figure S4 A
# [14] = logIC50, inhibition of FITC-ω2 uptake, replicate Figure S4 B
smiles,measurement,setting,value
"NCCCCCNC(=O)CCCC[C@@H]1SC[C@@H]2NC(=O)N[C@@H]21 [5-BP, 5‐biotinamido‐pentylamine]",IC50,"[1]; DQ2.5-glia-ω2, Figure 5",60.7 µM
same,IC50,"[1]; DQ2.5-glia-ω2, mean",27 µM
same,IC50,[1]; [3],13.6 µM
same,IC50,[1]; [4],6.79 µM
same,logIC50,"[1]; DQ2.5-glia-ω2, Figure 5",1.78
same,logIC50,"[1]; DQ2.5-glia-ω2, mean",1.25
same,logIC50,[1]; [3],1.13
same,logIC50,[1]; [4],0.832
same,log 95% CI lower limit,[1]; [5],1.52
same,log 95% CI upper limit,[1]; [5],2.04
same,log 95% CI lower limit,"[1]; logIC50, DQ2.5-glia-ω2, mean",1.23
same,log 95% CI upper limit,"[1]; logIC50, DQ2.5-glia-ω2, mean",1.57
same,log 95% CI lower limit,[1]; [6],0.940
same,log 95% CI upper limit,[1]; [6],1.32
same,log 95% CI upper limit,"[1]; logIC50, DQ2.5-glia-ω2, replicate Figure S5B",1.36
same,IC50,"[2]; 10 min, inhibition of FITC-α2 (5 µM) uptake, TG2 3 µg/mL, 2 mM CaCl2, RPMI, 37°C 10 min, Figure 4, read-out: IC50",22.7 µM
same,IC50,"[2]; 10 min, inhibition of FITC-α2 (5 µM) uptake, TG2 3 µg/mL, 2 mM CaCl2, RPMI, 37°C 10 min, mean, read-out: IC50",42 µM
same,IC50,"[2]; 10 min, inhibition of FITC-α2 (5 µM) uptake, TG2 3 µg/mL, 2 mM CaCl2, RPMI, 37°C 10 min, replicate Figure S4 A, read-out: IC50",57.9 µM
same,IC50,"[2]; 10 min, inhibition of FITC-α2 (5 µM) uptake, TG2 3 µg/mL, 2 mM CaCl2, RPMI, 37°C 10 min, replicate Figure S4 B, read-out: IC50",45.4 µM
same,IC50,"[2]; 10 min, inhibition of FITC-ω2 (5 µM) uptake, TG2 3 µg/mL, 2 mM CaCl2, RPMI, 37°C 10 min, Figure 4, read-out: IC50",20.7 µM
same,IC50,"[2]; 10 min, inhibition of FITC-ω2 (5 µM) uptake, TG2 3 µg/mL, 2 mM CaCl2, RPMI, 37°C 10 min, mean (spermine: Figure S4 B not included), read-out: IC50",72 µM
same,IC50,"[2]; 10 min, inhibition of FITC-ω2 (5 µM) uptake, TG2 3 µg/mL, 2 mM CaCl2, RPMI, 37°C 10 min, replicate Figure S4 A, read-out: IC50",130 µM
same,IC50,"[2]; 10 min, inhibition of FITC-ω2 (5 µM) uptake, TG2 3 µg/mL, 2 mM CaCl2, RPMI, 37°C 10 min, replicate Figure S4 B (for spermine not included in the mean), read-out: IC50",65.6 µM
same,IC50,"[2]; FITC 9-mer native gluten peptides, average IC50 values, Table S1, read-out: IC50, inhibition of FITC-9-mer peptide uptake (average values)",26 to 72 µM
same,logIC50,"[2]; inhibition of FITC-α2 uptake, Figure 4",1.36
same,logIC50,"[2]; inhibition of FITC-α2 uptake, mean",1.59
same,logIC50,"[2]; inhibition of FITC-α2 uptake, replicate Figure S4 B",1.66
same,logIC50,"[2]; inhibition of FITC-ω2 uptake, Figure 4",1.32
same,logIC50,"[2]; inhibition of FITC-ω2 uptake, mean",1.75
same,logIC50,"[2]; inhibition of FITC-ω2 uptake, replicate Figure S4 A",2.11
same,logIC50,"[2]; inhibition of FITC-ω2 uptake, replicate Figure S4 B",1.82
same,log 95% CI lower limit,[2]; [7],1.04
same,log 95% CI upper limit,[2]; [7],1.71
same,log 95% CI lower limit,[2]; [8],1.35
same,log 95% CI upper limit,[2]; [8],1.85
same,log 95% CI lower limit,[2]; [9],1.52
same,log 95% CI upper limit,[2]; [9],2.00
same,log 95% CI lower limit,[2]; [10],1.50
same,log 95% CI upper limit,[2]; [10],1.82
same,log 95% CI lower limit,[2]; [11],1.09
same,log 95% CI upper limit,[2]; [11],1.57
same,log 95% CI lower limit,[2]; [12],1.48
same,log 95% CI upper limit,[2]; [12],2.03
same,log 95% CI lower limit,[2]; [13],1.86
same,log 95% CI upper limit,[2]; [13],2.38
same,log 95% CI lower limit,[2]; [14],1.50
same,log 95% CI upper limit,[2]; [14],2.14
